Test results: patent US12325697B2 (Nimbus Clio, Inc., priority 2021, dated 2025)
Blank lines part the entries; values can stand above or below the compound they belong to.

Legend:
[1] = target: Recombinant human Cbl-b (aa 36-427) (Homo sapiens (Human), UniProt Q13191); assay: Cbl-b Biochemical Assay (TR-FRET); conditions: read-out: TR-FRET hCbl-b IC50
Outline: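 IC50 from 4-parameter fit of % inhibition (DMSO max, reference-inhibitor min), duplicate ten-point series. Compound preincubated with 6 nM Cbl-b, then Src-Zap70 (1-2.5 nM)/0.5 mM ATP reaction 60 min RT; EDTA quench with labelled UBE2D2-Ub and streptavidin-terbium, 60 min, HTRF at 520 nm.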

[2] = test system: Jurkat (clone E6-1) cells, NFAT luciferase reporter; assay: Jurkat Reporter Assay (NFAT Luciferase); type: cell-based; conditions: Homo sapiens, anti-CD3 stimulation, 6 hr, read-out: Jurkat NFAT EC50
[3] = test system: Phospho-Zap70 (Y-319) in Jurkat wild-type (clone E6-1) cells; assay: Jurkat pZAP70 HTRF Assay; type: cell-based; conditions: Homo sapiens, anti-CD3 5 μg/ml, 3 hr, read-out: ZAP70 Jurkat EC50

Sequence of Recombinant human Cbl-b (aa 36-427) (Q13191 36-427): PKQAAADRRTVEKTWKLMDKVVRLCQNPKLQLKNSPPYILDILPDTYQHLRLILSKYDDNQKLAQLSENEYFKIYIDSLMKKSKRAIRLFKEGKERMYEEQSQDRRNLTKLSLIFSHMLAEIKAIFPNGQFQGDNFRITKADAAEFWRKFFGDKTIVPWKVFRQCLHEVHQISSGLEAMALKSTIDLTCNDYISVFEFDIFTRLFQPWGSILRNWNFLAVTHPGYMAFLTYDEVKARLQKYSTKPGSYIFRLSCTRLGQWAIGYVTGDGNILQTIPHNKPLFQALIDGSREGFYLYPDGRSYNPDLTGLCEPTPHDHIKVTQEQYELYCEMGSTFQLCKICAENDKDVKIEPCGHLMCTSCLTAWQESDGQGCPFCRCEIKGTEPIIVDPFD

Structure (SMILES): Cn1cnnc1-c1ccccc1-c1cc(C2CC2)nc(N2Cc3cc(F)c(CNCC4(O)CCC4)cc3C2=O)c1 [AEI-5, 2-{6-Cyclopropyl-4-[2-(4-methyl-1,2,4-triazol-3-yl)phenyl]pyridin-2-yl}-5-fluoro-6-({[(1-hydroxycyclobutyl)methyl]amino}methyl)-3H-isoindol-1-one]
IC50 [1]: ≤ 200 nM | EC50 [2]: < 200 nM | EC50 [3]: < 200 nM

Structure (SMILES): Cn1cnnc1-c1cc(F)ccc1-c1cc(C2CC2)nc(N2Cc3ccc(CN[C@@H]4CCC[C@@H]4O)cc3C2=O)c1 [AFO-2, 2-{6-Cyclopropyl-4-[4-fluoro-2-(4-methyl-1,2,4-triazol-3-yl)phenyl]pyridin-2-yl}-6-({[(1R,2S)-2-hydroxycyclopentyl]amino}methyl)-3H-isoindol-1-one]
IC50 [1]: ≤ 200 nM | EC50 [2]: < 200 nM | EC50 [3]: < 200 nM

Structure (SMILES): Cn1cnnc1-c1cc(F)ccc1-c1cc(C2CC2)nc(N2Cc3ccc(CNCC4(O)CCCC4)cc3C2=O)c1 [AGP-1, 2-{6-Cyclopropyl-4-[4-fluoro-2-(4-methyl-1,2,4-triazol-3-yl)phenyl]pyridin-2-yl}-6-({[(1-hydroxycyclopentyl)methyl]amino}methyl)-3H-isoindol-1-one]
IC50 [1]: ≤ 200 nM | EC50 [2]: < 200 nM | EC50 [3]: 200 to 1000 nM

Structure (SMILES): CCNc1cc(-c2ccc(F)cc2-c2nncn2C)cc(N2Cc3c(cc(COCC4(N)CCC4)cc3C(F)(F)F)C2=O)n1 [AGS-2]
IC50 [1]: ≤ 200 nM | EC50 [2]: < 200 nM | EC50 [3]: < 200 nM

Structure (SMILES): CCNc1cc(-c2c(-c3nncn3C)cnn2C)cc(N2Cc3c(cc(CNCC4(O)CCC4)cc3C(F)(F)F)C2=O)n1 [ADJ-1, 2-[6-(Ethylamino)-4-[2-methyl-4-(4-methyl-1,2,4-triazol-3-yl)pyrazol-3-yl]pyridin-2-yl]-6-({[(1-hydroxycyclobutyl)methyl]amino}methyl)-4-(trifluoromethyl)-3H-isoindol-1-one]
IC50 [1]: ≤ 200 nM | EC50 [2]: < 200 nM | EC50 [3]: < 200 nM

IC50 [1]: ≤ 200 nM | EC50 [2]: 200 to 1000 nM | EC50 [3]: 1000 to 10000 nM
Structure (SMILES): Cn1cnnc1-c1cc(F)ccc1-c1cc(C2CC2)nc(N2Cc3c(cccc3C(F)(F)F)C2=O)c1 [AND-2, 2-{6-Cyclopropyl-4-[4-fluoro-2-(4-methyl-1,2,4-triazol-3-yl)phenyl]pyridin-2-yl}-4-(trifluoromethyl)-3H-isoindol-1-one]

Structure (SMILES): Cn1cnnc1-c1cc(C#N)ccc1-c1cccc(N2Cc3c(cc(CNCC4(O)CCC4)cc3C(F)(F)F)C2=O)c1 [ADV-1, 3′-[6-({[(1-Hydroxycyclobutyl)methyl]amino}methyl)-1-oxo-4-(trifluoromethyl)-3H-isoindol-2-yl]-2-(4-methyl-1,2,4-triazol-3-yl)-[1,1′-biphenyl]-4-carbonitrile]
IC50 [1]: ≤ 200 nM | EC50 [2]: < 200 nM | EC50 [3]: < 200 nM

Structure (SMILES): Cn1cnnc1-c1cc(F)ccc1-c1cc(C2CC2)nc(N2Cc3ccc(CNCC4CCCC4)cc3C2=O)c1 [AHH-3, 6-{[(Cyclopentylmethyl)amino]methyl}-2-{6-cyclopropyl-4-[4-fluoro-2-(4-methyl-1,2,4-triazol-3-yl)phenyl]pyridin-2-yl}-3H-isoindol-1-one]
IC50 [1]: ≤ 200 nM | EC50 [2]: < 200 nM | EC50 [3]: < 200 nM

Structure (SMILES): CCNc1cc(-c2ccc(C#N)cc2-c2nncn2C)cc(N2Cc3c(cc(COCC(C)(C)O)cc3C(F)(F)F)C2=O)n1 [AFE-1, 4-[2-(ethylamino)-6-{6-[(2-hydroxy-2-methylpropoxy)methyl]-1-oxo-4-(trifluoromethyl)-3H-isoindol-2-yl}pyridin-4-yl]-3-(4-methyl-1,2,4-triazol-3-yl)benzonitrile]
IC50 [1]: ≤ 200 nM | EC50 [2]: < 200 nM | EC50 [3]: 200 to 1000 nM

Structure (SMILES): CCNc1cc(-c2ccc(C#N)cc2-c2nncn2C)cc(N2Cc3c(cc(COCC4(O)CCC4)cc3C(F)(F)F)C2=O)n1 [AEZ-1, 4-[2-(ethylamino)-6-(6-{[(1-hydroxycyclobutyl)methoxy]methyl}-1-oxo-4-(trifluoromethyl)-3H-isoindol-2-yl)pyridin-4-yl]-3-(4-methyl-1,2,4-triazol-3-yl) benzonitrile]
IC50 [1]: ≤ 200 nM | EC50 [2]: < 200 nM | EC50 [3]: 200 to 1000 nM

Structure (SMILES): Cn1cnnc1-c1cnn(C)c1-c1cc(C2CC2)nc(N2Cc3c(cc(CO[C@H]4CCC[C@H]4O)cc3C(F)(F)F)C2=O)c1 [AGA-1, 2-{6-Cyclopropyl-4-[2-methyl-4-(4-methyl-1,2,4-triazol-3-yl)pyrazol-3-yl]pyridin-2-yl}-6-({1[(1R,2S)-2-hydroxycyclopentyl]oxy}methyl)-4-(trifluoromethyl)-3H-isoindol-1-one]
IC50 [1]: ≤ 200 nM | EC50 [2]: < 200 nM | EC50 [3]: 200 to 1000 nM

Structure (SMILES): CCNc1cc(-c2ccc(C#N)cc2-c2nncn2C)cc(N2Cc3c(cc(CNCCOC)cc3C(F)(F)F)C2=O)n1 [AEC-2, 4-[2-(Ethylamino)-6-(6-{[(2-methoxyethyl)amino]methyl}-1-oxo-4-(trifluoromethyl)-3H-isoindol-2-yl)pyridin-4-yl]-3-(4-methyl-1,2,4-triazol-3-yl)benzonitrile]
IC50 [1]: ≤ 200 nM | EC50 [2]: < 200 nM | EC50 [3]: < 200 nM

Structure (SMILES): Cn1cnnc1-c1cnn(C)c1-c1cc(C2CC2)nc(N2Cc3ccc(CNCC4(O)CCC4)cc3C2=O)c1 [AFI-1, 2-{6-Cyclopropyl-4-[2-methyl-4-(4-methyl-1,2,4-triazol-3-yl)pyrazol-3-yl]pyridin-2-yl}-6-({[(1-hydroxycyclobutyl)methyl]amino}methyl)-3H-isoindol-1-one]
IC50 [1]: ≤ 200 nM | EC50 [2]: < 200 nM | EC50 [3]: < 200 nM

Structure (SMILES): Cn1cnnc1-c1cc(Cl)ccc1-c1cccc(N2Cc3ccc(CNCC4(O)CCC4)cc3C2=O)c1 [AGV-1, 2-[4′-Chloro-2′-(4-methyl-1,2,4-triazol-3-yl)-[1,1′-biphenyl]-3-yl]-6-({[(1-hydroxycyclobutyl)methyl]amino}methyl)-3H-isoindol-1-one]
IC50 [1]: ≤ 200 nM | EC50 [2]: < 200 nM | EC50 [3]: < 200 nM
